Assay results published in ChEMBL document CHEMBL1201862, “PubChem BioAssay data set” (2004).
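48-hour exposure; five concentrations; linearly interpolated endpoints. GI50 marks 50% less growth.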 The source made the active and inactive calls. No stated cut-off is given here; in the data, active = GI50 up to about 1.1 µM and inactive = higher.

Assays:
Assay in all cases: NCI-60 cell line screen, 48 h
K562 = system: K562
M14 = system: M14
HCT-15 = system: HCT-15
MDA-MB-435 = system: MDA-MB-435
HCC 2998 = system: HCC 2998
PC-3 = system: PC-3
SN12C = system: SN12C
SF-268 = system: SF-268
OVCAR-3 = system: OVCAR-3
CAKI-1 = system: CAKI-1
COLO 205 = system: COLO 205
HL-60 = system: HL-60
KM12 = system: KM12
DU-145 = system: DU-145
MCF7 = system: MCF7
SW-620 = system: SW-620
NCI-H226 = system: NCI-H226
RPMI-8226 = system: RPMI-8226
SK-MEL-2 = system: SK-MEL-2
UACC-62 = system: UACC-62

| SMILES | GI50 (K562) | GI50 (M14) | GI50 (HCT-15) | GI50 (MDA-MB-435) | GI50 (HCC 2998) | GI50 (PC-3) | GI50 (SN12C) | GI50 (SF-268) | GI50 (OVCAR-3) | GI50 (CAKI-1) | GI50 (COLO 205) | GI50 (HL-60) | GI50 (KM12) | GI50 (DU-145) | GI50 (MCF7) | GI50 (SW-620) | GI50 (NCI-H226) | GI50 (RPMI-8226) | GI50 (SK-MEL-2) | GI50 (UACC-62) |
| --- | --- | --- | --- | --- | --- | --- | --- | --- | --- | --- | --- | --- | --- | --- | --- | --- | --- | --- | --- | --- |
| C=C1C(=O)O[C@H]2C/C(C)=C/CC/C(C)=C/CC[C@@](C)(O)[C@@H](I)C[C@@H]12 | 2.94 µM (inactive) | 9.64 µM (inactive) | 6.04 µM | 4.6 µM (inactive) | 12.5 µM (inactive) | 8.26 µM (inactive) | 5.06 µM (inactive) | 14 µM (inactive) | 12.3 µM (inactive) | 8.93 µM (inactive) | 9.44 µM (inactive) | 2.58 µM (inactive) | 5.65 µM (inactive) | 9.44 µM (inactive) | 5.57 µM (inactive) | 4.25 µM (inactive) | 3.42 µM (inactive) | 2.69 µM (inactive) | 11.7 µM (inactive) | 11.3 µM (inactive) |
| O=C1/C(=c2\s/c(=C\c3ccccc3)c(=O)n2-c2ccccc2)SC(=S)N1c1ccccc1 | 47.2 µM (inactive) | > 100 µM (inactive) | > 100 µM | 49.8 µM (inactive) | 70.5 µM (inactive) | 55 µM (inactive) | 35.6 µM (inactive) | 41.8 µM (inactive) | 27.2 µM (inactive) | 0.131 µM (active) | 63.5 µM (inactive) | > 100 µM (inactive) | 71.8 µM (inactive) | 37.2 µM (inactive) | 53.5 µM (inactive) | 93.3 µM (inactive) | 25.5 µM (inactive) | 56.8 µM (inactive) | 32.3 µM (inactive) | 35.6 µM (inactive) |
| O=C(O)C1C2c3ccccc3C(c3ccccc32)C1C(=O)NCC1CC1 (stereo not given) | 45.3 µM (inactive) | 61.9 µM (inactive) | 48.3 µM | 51.2 µM (inactive) | 13.5 µM (inactive) | 53.7 µM (inactive) | 55.2 µM (inactive) | 94.4 µM (inactive) | 46.8 µM (inactive) | > 100 µM (inactive) | 54.5 µM (inactive) | 24.8 µM (inactive) | 55.3 µM (inactive) | 81.1 µM (inactive) | 52.1 µM (inactive) | 50.2 µM (inactive) | 60.4 µM (inactive) | 24.7 µM (inactive) | 91.6 µM (inactive) | 38.5 µM (inactive) |
| CNc1ccc(-c2nc3cc(C)ccc3o2)cc1 | > 100 µM (inactive) | > 100 µM (inactive) | > 100 µM | > 100 µM (inactive) | > 100 µM (inactive) | > 100 µM (inactive) | > 100 µM (inactive) | 42.7 µM (inactive) | > 100 µM (inactive) | > 100 µM (inactive) | > 100 µM (inactive) | > 100 µM (inactive) | > 100 µM (inactive) | > 100 µM (inactive) | > 100 µM (inactive) | > 100 µM (inactive) | 45.3 µM (inactive) | > 100 µM (inactive) | > 100 µM (inactive) | 68.5 µM (inactive) |
| COc1ccc(/C(C)=N/OC(=O)c2c(-c3ccccc3Cl)noc2C)cc1CN1CCOCC1 | 28.2 µM (inactive) | 14 µM (inactive) | 26.5 µM | 20.8 µM (inactive) | 30.5 µM (inactive) | 24.2 µM (inactive) | 18.7 µM (inactive) | 30.8 µM (inactive) | 21.7 µM (inactive) | 20.7 µM (inactive) | 16.2 µM (inactive) | 17.1 µM (inactive) | 22.4 µM (inactive) | 38.3 µM (inactive) | 20.8 µM (inactive) | 43.1 µM (inactive) | 88.1 µM (inactive) | 26.1 µM (inactive) | 16.4 µM (inactive) | 15 µM (inactive) |
| COc1ccc(OC)c2c1C[C@@H]1C(C#N)N3[C@H](Cc4c(OC)ccc(OC)c4[C@@H]3C)C(=O)N1[C@H]2C (stereo not given in full) | 2.27 µM (inactive) | 2.67 µM (inactive) | 3.08 µM | 3.33 µM (inactive) | 3.61 µM (inactive) | 3.18 µM (inactive) | 4.42 µM (inactive) | 2.15 µM (inactive) | 2.07 µM (inactive) | 4.72 µM (inactive) | 1.84 µM (inactive) | 1.85 µM (inactive) | 2.77 µM (inactive) | 22.4 µM (inactive) | 3.91 µM (inactive) | 2.86 µM (inactive) | 13.5 µM (inactive) | 2.53 µM (inactive) | 2.16 µM (inactive) | 2.36 µM (inactive) |
| O=C(NC1(C(=O)O)CCCC1)c1ccccc1 | > 100 µM (inactive) | > 100 µM (inactive) | > 100 µM | > 100 µM (inactive) | > 100 µM (inactive) | > 100 µM (inactive) | > 100 µM (inactive) | > 100 µM (inactive) | > 100 µM (inactive) | > 100 µM (inactive) | > 100 µM (inactive) | > 100 µM (inactive) | > 100 µM (inactive) | > 100 µM (inactive) | > 100 µM (inactive) | > 100 µM (inactive) | > 100 µM (inactive) | > 100 µM (inactive) | > 100 µM (inactive) | > 100 µM (inactive) |
| O=C(O)CCSCc1ccc(I)cc1 | > 100 µM (inactive) | > 100 µM (inactive) | > 100 µM | > 100 µM (inactive) | > 100 µM (inactive) | > 100 µM (inactive) | > 100 µM (inactive) | > 100 µM (inactive) | > 100 µM (inactive) | > 100 µM (inactive) | > 100 µM (inactive) | > 100 µM (inactive) | > 100 µM (inactive) | > 100 µM (inactive) | > 100 µM (inactive) | > 100 µM (inactive) | > 100 µM (inactive) | > 100 µM (inactive) | > 100 µM (inactive) | > 100 µM (inactive) |
| CCCCN(c1ccccc1)c1ncnc2c1cnn2C | 28.2 µM (inactive) | 48.2 µM (inactive) | 35.4 µM | 37.5 µM (inactive) | 36.8 µM (inactive) | 27.5 µM (inactive) | 65 µM (inactive) | 34.8 µM (inactive) | 24.8 µM (inactive) | 45.1 µM (inactive) | > 100 µM (inactive) | 19.1 µM (inactive) | 46 µM (inactive) | 53.6 µM (inactive) | 32.4 µM (inactive) | 29.2 µM (inactive) | > 100 µM (inactive) | 14.3 µM (inactive) | 27.5 µM (inactive) | 31.2 µM (inactive) |
| COc1cccc2c1C(=O)c1c(O)c3c(c(O)c1C2=O)C[C@@](O)(C(=O)CO)CC3OC1CC(N)C(OC2CCCCO2)C(C)O1 (stereo not given in full) | 0.646 µM (active) | 1.2 µM (inactive) | 1.61 µM | 0.0807 µM (active) | 7.19 µM (inactive) | 0.0461 µM (active) | 1.27 µM (inactive) | 0.785 µM (active) | 1.56 µM (inactive) | 0.916 µM (active) | 1.21 µM (inactive) | 0.207 µM (active) | 0.0399 µM (active) | 0.0031 µM (active) | 0.001 µM (active) | 0.265 µM (active) | 0.419 µM (active) | 0.33 µM (active) | 1.85 µM (inactive) | 0.918 µM (active) |
| O=C(c1ccccc1)C(Nc1ccc2ccccc2c1)c1ccccc1 (stereo not given) | 7.36 µM (inactive) | 31.3 µM (inactive) | 29 µM | 4.85 µM (inactive) | 20.7 µM (inactive) | 17.6 µM (inactive) | 26.9 µM (inactive) | 39.5 µM (inactive) | 13.9 µM (inactive) | > 100 µM (inactive) | 17.6 µM (inactive) | 13.1 µM (inactive) | 19.8 µM (inactive) | 42 µM (inactive) | 12.7 µM (inactive) | 27.7 µM (inactive) | > 60.7 µM (inactive) | 11.1 µM (inactive) | 14.2 µM (inactive) | 18.2 µM (inactive) |
| CC(C)C(/C=C/c1ccc(Cl)cc1)=N\NC(=S)NN | 3.55 µM (inactive) | 18.9 µM (inactive) | 5.98 µM | 10.7 µM (inactive) | 44.2 µM (inactive) | 36.5 µM (inactive) | 14.1 µM (inactive) | 7.57 µM (inactive) | 20.1 µM (inactive) | 22.4 µM (inactive) | 24.2 µM (inactive) | 4.99 µM (inactive) | 23.8 µM (inactive) | 27.5 µM (inactive) | 15.6 µM (inactive) | 14.1 µM (inactive) | 10.4 µM (inactive) | 11.7 µM (inactive) | 7.03 µM (inactive) | 4.51 µM (inactive) |
| CC1CCC(=O)C(C(=O)CC2CC(=O)N(C)C(=O)C2)C1 (stereo not given) | > 100 µM (inactive) | > 100 µM (inactive) | > 100 µM | > 100 µM (inactive) | > 100 µM (inactive) | > 100 µM (inactive) | > 100 µM (inactive) | > 100 µM (inactive) | > 100 µM (inactive) | > 100 µM (inactive) | > 100 µM (inactive) | > 100 µM (inactive) | > 100 µM (inactive) | > 100 µM (inactive) | > 100 µM (inactive) | > 100 µM (inactive) | > 100 µM (inactive) | > 100 µM (inactive) | > 100 µM (inactive) | > 100 µM (inactive) |
| Cc1ccc(C(=O)C(Cl)C(Cl)c2ccc(C)cc2)cc1 (stereo not given) | 1.49 µM (inactive) | 4.71 µM (inactive) | 1.83 µM | 2.97 µM (inactive) | 2.03 µM (inactive) | 5 µM (inactive) | 1.82 µM (inactive) | 5.56 µM (inactive) | 3.42 µM (inactive) | 2.59 µM (inactive) | 2.07 µM (inactive) | 1.24 µM (inactive) | 3.68 µM (inactive) | 5.18 µM (inactive) | 4.56 µM (inactive) | 2.39 µM (inactive) | 5.04 µM (inactive) | 1.56 µM (inactive) | 16.3 µM (inactive) | 3.67 µM (inactive) |
